{"source": "ChEMBL document CHEMBL1139108", "about": "“New thiopyrazolo[3,4-d]pyrimidine derivatives as anti-mycobacterial agents” (Bioorg Med Chem Lett, 2007)", "key": {"[1]": {"system": "Mycobacterium tuberculosis", "assay": "Antimycobacterial activity against Mycobacterium tuberculosis H37Rv", "assay_type": "functional"}, "[2]": {"assay": "Cytotoxicity against human HepG2 cells", "assay_type": "cell-based", "conditions": "read-out: TD50 (the source's name)"}}, "data": [{"smiles": "C=CCn1ncc2c(SCc3ccncc3)ncnc21", "values": [{"measurement": "MIC", "setting": "[1]", "value": 125, "unit": "µg/mL"}]}, {"smiles": "C=CCn1ncc2c(SCc3cccnc3)ncnc21", "values": [{"measurement": "MIC", "setting": "[1]", "value": 250, "unit": "µg/mL"}]}, {"smiles": "N#CCSc1ncnc2c1cnn2Cc1ccc(Cl)cc1", "values": [{"measurement": "MIC", "setting": "[1]", "value": 125, "unit": "µg/mL"}]}, {"smiles": "OCCSc1ncnc2c1cnn2Cc1ccccc1", "values": [{"measurement": "MIC", "setting": "[1]", "value": 63, "unit": "µg/mL"}]}, {"smiles": "OCCn1ncc2c(SCc3ccccc3)ncnc21", "values": [{"measurement": "MIC", "setting": "[1]", "value": 125, "unit": "µg/mL"}]}, {"smiles": "Clc1ccc(CSc2ncnc3[nH]ncc23)cc1", "values": [{"measurement": "MIC", "setting": "[1]", "value": 250, "unit": "µg/mL"}]}, {"smiles": "C#CCSc1ncnc2c1cnn2CC=C", "values": [{"measurement": "MIC", "setting": "[1]", "value": 63, "unit": "µg/mL"}]}, {"smiles": "Clc1ccccc1CSc1ncnc2[nH]ncc12", "values": [{"measurement": "MIC", "setting": "[1]", "value": 250, "unit": "µg/mL"}]}, {"smiles": "C=CCn1ncc2c(SCc3ccccc3Cl)ncnc21", "values": [{"measurement": "MIC", "setting": "[1]", "value": 32, "unit": "µg/mL"}]}, {"smiles": "Clc1ccccc1CSc1ncnc2c1cnn2Cc1ccccc1", "values": [{"measurement": "MIC", "setting": "[1]", "value": 250, "unit": "µg/mL"}]}, {"smiles": "C=CCSc1ncnc2c1cnn2Cc1ccc(Cl)cc1", "values": [{"measurement": "MIC", "setting": "[1]", "value": 16, "unit": "µg/mL"}]}, {"smiles": "c1nc(SCC2CC2)c2cn[nH]c2n1", "values": [{"measurement": "MIC", "setting": "[1]", "value": 125, "unit": "µg/mL"}]}, {"smiles": "N#CCSc1ncnc2[nH]ncc12", "values": [{"measurement": "MIC", "setting": "[1]", "value": 63, "unit": "µg/mL"}]}, {"smiles": "c1ccc(CSc2ncnc3c2cnn3Cc2ccccc2)cc1", "values": [{"measurement": "MIC", "setting": "[1]", "value": 16, "unit": "µg/mL"}]}, {"smiles": "CCCn1ncc2c(SCc3ccccc3)ncnc21", "values": [{"measurement": "MIC", "setting": "[1]", "value": 32, "unit": "µg/mL"}]}, {"smiles": "Clc1ccccc1Cn1ncc2c(SCc3ccccc3)ncnc21", "values": [{"measurement": "MIC", "setting": "[1]", "value": 16, "unit": "µg/mL"}]}, {"smiles": "c1ccc(Cn2ncc3c(SCc4ccncc4)ncnc32)cc1", "values": [{"measurement": "MIC", "setting": "[1]", "value": 32, "unit": "µg/mL"}]}, {"smiles": "C=CCCSc1ncnc2c1cnn2Cc1ccccc1", "values": [{"measurement": "MIC", "setting": "[1]", "value": 16, "unit": "µg/mL"}]}, {"smiles": "N#CCSc1ncnc2c1cnn2CC#N", "values": [{"measurement": "MIC", "setting": "[1]", "value": 8, "unit": "µg/mL"}]}, {"smiles": "C=CCCSc1ncnc2c1cnn2CC#N", "values": [{"measurement": "MIC", "setting": "[1]", "value": 63, "unit": "µg/mL"}]}, {"smiles": "N#CCSc1ncnc2c1cnn2Cc1cccnc1", "values": [{"measurement": "MIC", "setting": "[1]", "value": 63, "unit": "µg/mL"}]}, {"smiles": "C=CCSc1ncnc2c1cnn2CC=C", "values": [{"measurement": "MIC", "setting": "[1]", "value": 125, "unit": "µg/mL"}]}, {"smiles": "N#CCn1ncc2c(SCc3ccccc3)ncnc21", "values": [{"measurement": "MIC", "setting": "[1]", "value": 32, "unit": "µg/mL"}]}, {"smiles": "C#CCSc1ncnc2c1cnn2CC#C", "values": [{"measurement": "MIC", "setting": "[1]", "value": 63, "unit": "µg/mL"}]}, {"smiles": "C=CCn1ncc2c(SCC3CC3)ncnc21", "values": [{"measurement": "MIC", "setting": "[1]", "value": 125, "unit": "µg/mL"}]}, {"smiles": "c1ccc(Cn2ncc3c(SCC4CC4)ncnc32)cc1", "values": [{"measurement": "MIC", "setting": "[1]", "value": 16, "unit": "µg/mL"}]}, {"smiles": "C=CCCSc1ncnc2[nH]ncc12", "values": [{"measurement": "MIC", "setting": "[1]", "value": 125, "unit": "µg/mL"}]}, {"smiles": "C=CCSc1ncnc2c1cnn2Cc1ccccc1", "values": [{"measurement": "MIC", "setting": "[1]", "value": 32, "unit": "µg/mL"}]}, {"smiles": "c1ccc(CSc2ncnc3[nH]ncc23)cc1", "values": [{"measurement": "MIC", "setting": "[1]", "value": 250, "unit": "µg/mL"}]}, {"smiles": "Clc1ccc(CSc2ncnc3c2cnn3Cc2ccccc2)cc1", "values": [{"measurement": "MIC", "setting": "[1]", "value": 32, "unit": "µg/mL"}]}, {"smiles": "C=CCSc1ncnc2c1cnn2CCO", "values": [{"measurement": "MIC", "setting": "[1]", "value": 250, "unit": "µg/mL"}]}, {"smiles": "c1ccc(CSc2ncnc3c2cnn3Cc2ccncc2)cc1", "values": [{"measurement": "MIC", "setting": "[1]", "value": 16, "unit": "µg/mL"}]}, {"smiles": "C=CCSc1ncnc2c1cnn2CC1CC1", "values": [{"measurement": "MIC", "setting": "[1]", "value": 32, "unit": "µg/mL"}]}, {"smiles": "C=CCSc1ncnc2c1cnn2CC#N", "values": [{"measurement": "MIC", "setting": "[1]", "value": 16, "unit": "µg/mL"}]}, {"smiles": "C=CCSc1ncnc2c1cnn2Cc1ccncc1", "values": [{"measurement": "MIC", "setting": "[1]", "value": 63, "unit": "µg/mL"}]}, {"smiles": "c1cncc(CSc2ncnc3[nH]ncc23)c1", "values": [{"measurement": "MIC", "setting": "[1]", "value": 250, "unit": "µg/mL"}]}, {"smiles": "C=CCn1ncc2c(SCC#N)ncnc21", "values": [{"measurement": "MIC", "setting": "[1]", "value": 32, "unit": "µg/mL"}, {"measurement": "CC50", "setting": "[2]", "value": 4, "unit": "µg/mL"}]}, {"smiles": "N#CCSc1ncnc2c1cnn2Cc1ccccc1", "values": [{"measurement": "MIC", "setting": "[1]", "value": 32, "unit": "µg/mL"}]}, {"smiles": "Clc1ccc(CSc2ncnc3c2cnn3Cc2ccc(Cl)cc2)cc1", "values": [{"measurement": "MIC", "setting": "[1]", "value": 63, "unit": "µg/mL"}]}, {"smiles": "Clc1ccc(CSc2ncnc3c2cnn3Cc2cccnc2)cc1", "values": [{"measurement": "MIC", "setting": "[1]", "value": 0.5, "unit": "µg/mL"}, {"measurement": "CC50", "setting": "[2]", "value": "> 40", "unit": "µg/mL"}]}, {"smiles": "CCCSc1ncnc2[nH]ncc12", "values": [{"measurement": "MIC", "setting": "[1]", "value": 125, "unit": "µg/mL"}]}, {"smiles": "CCCSc1ncnc2c1cnn2Cc1ccccc1", "values": [{"measurement": "MIC", "setting": "[1]", "value": 16, "unit": "µg/mL"}]}, {"smiles": "C=CCn1ncc2c(SCCO)ncnc21", "values": [{"measurement": "MIC", "setting": "[1]", "value": 250, "unit": "µg/mL"}]}, {"smiles": "C=CCSc1ncnc2c1cnn2Cc1cccnc1", "values": [{"measurement": "MIC", "setting": "[1]", "value": 63, "unit": "µg/mL"}]}, {"smiles": "C#CCSc1ncnc2c1cnn2Cc1ccccc1", "values": [{"measurement": "MIC", "setting": "[1]", "value": 63, "unit": "µg/mL"}]}, {"smiles": "C=CCCn1ncc2c(SCc3ccccc3)ncnc21", "values": [{"measurement": "MIC", "setting": "[1]", "value": 16, "unit": "µg/mL"}]}, {"smiles": "C#CCn1ncc2c(SCc3ccccc3)ncnc21", "values": [{"measurement": "MIC", "setting": "[1]", "value": 32, "unit": "µg/mL"}]}, {"smiles": "N#CCn1ncc2c(SCc3ccc(Cl)cc3)ncnc21", "values": [{"measurement": "MIC", "setting": "[1]", "value": 8, "unit": "µg/mL"}, {"measurement": "CC50", "setting": "[2]", "value": 2, "unit": "µg/mL"}]}, {"smiles": "C=CCCSc1ncnc2c1cnn2Cc1ccc(Cl)cc1", "values": [{"measurement": "MIC", "setting": "[1]", "value": 125, "unit": "µg/mL"}]}, {"smiles": "C=CCn1ncc2c(SCCC)ncnc21", "values": [{"measurement": "MIC", "setting": "[1]", "value": 63, "unit": "µg/mL"}]}, {"smiles": "OCCSc1ncnc2[nH]ncc12", "values": [{"measurement": "MIC", "setting": "[1]", "value": 250, "unit": "µg/mL"}]}, {"smiles": "c1ccc(Cn2ncc3c(SCc4cccnc4)ncnc32)cc1", "values": [{"measurement": "MIC", "setting": "[1]", "value": 32, "unit": "µg/mL"}]}, {"smiles": "C=CCCn1ncc2c(SCC=C)ncnc21", "values": [{"measurement": "MIC", "setting": "[1]", "value": 63, "unit": "µg/mL"}]}, {"smiles": "C=CCSc1ncnc2c1cnn2Cc1ccccc1Cl", "values": [{"measurement": "MIC", "setting": "[1]", "value": 63, "unit": "µg/mL"}]}, {"smiles": "c1cc(CSc2ncnc3[nH]ncc23)ccn1", "values": [{"measurement": "MIC", "setting": "[1]", "value": 250, "unit": "µg/mL"}]}, {"smiles": "Clc1ccc(Cn2ncc3c(SCc4ccccc4)ncnc32)cc1", "values": [{"measurement": "MIC", "setting": "[1]", "value": 16, "unit": "µg/mL"}]}, {"smiles": "C=CCCSc1ncnc2c1cnn2CC=C", "values": [{"measurement": "MIC", "setting": "[1]", "value": 32, "unit": "µg/mL"}]}, {"smiles": "C=CCSc1ncnc2c1cnn2CCC", "values": [{"measurement": "MIC", "setting": "[1]", "value": 125, "unit": "µg/mL"}]}, {"smiles": "C=CCCSc1ncnc2c1cnn2Cc1cccnc1", "values": [{"measurement": "MIC", "setting": "[1]", "value": 32, "unit": "µg/mL"}]}, {"smiles": "C=CCSc1ncnc2[nH]ncc12", "values": [{"measurement": "MIC", "setting": "[1]", "value": 250, "unit": "µg/mL"}]}, {"smiles": "c1ccc(CSc2ncnc3c2cnn3Cc2cccnc2)cc1", "values": [{"measurement": "MIC", "setting": "[1]", "value": 8, "unit": "µg/mL"}, {"measurement": "CC50", "setting": "[2]", "value": "> 40", "unit": "µg/mL"}]}, {"smiles": "c1ccc(CSc2ncnc3c2cnn3CC2CC2)cc1", "values": [{"measurement": "MIC", "setting": "[1]", "value": 250, "unit": "µg/mL"}]}, {"smiles": "C=CCn1ncc2c(SCc3ccc(Cl)cc3)ncnc21", "values": [{"measurement": "MIC", "setting": "[1]", "value": 8, "unit": "µg/mL"}, {"measurement": "CC50", "setting": "[2]", "value": "> 20", "unit": "µg/mL"}]}, {"smiles": "C#CCn1ncc2c(SCC=C)ncnc21", "values": [{"measurement": "MIC", "setting": "[1]", "value": 32, "unit": "µg/mL"}]}, {"smiles": "C=CCn1ncc2c(SCc3ccccc3)ncnc21", "values": [{"measurement": "MIC", "setting": "[1]", "value": 32, "unit": "µg/mL"}]}, {"smiles": "CC[C@@H](CO)NCCN[C@@H](CC)CO", "note": "[ETHAMBUTOL]", "values": [{"measurement": "MIC", "setting": "[1]", "value": 2.5, "unit": "µg/mL"}]}, {"smiles": "NNC(=O)c1ccncc1", "note": "[ISONIAZID]", "values": [{"measurement": "MIC", "setting": "[1]", "value": 0.25, "unit": "µg/mL"}]}, {"smiles": "CO[C@H]1/C=C/O[C@@]2(C)Oc3c(C)c(O)c4c(O)c(c(/C=N/N5CCN(C)CC5)c(O)c4c3C2=O)NC(=O)/C(C)=C\\C=C\\[C@H](C)[C@H](O)[C@@H](C)[C@@H](O)[C@@H](C)[C@H](OC(C)=O)[C@@H]1C", "note": "[RIFAMPIN]", "values": [{"measurement": "MIC", "setting": "[1]", "value": 0.016, "unit": "µg/mL"}]}]}
